Measurements from article PMC3514116 (BMC Plant Biology, 2012).
Marks after values point to notes of the source that are not given here. Ends that are not written are not given here.

Assays:
[1] = system: erythrocyte suspensions of fresh human blood; test: Hemolytic activity (hemoglobin release); format: cell-based; conditions: human erythrocytes 5% v/v, TRIS/NaCl pH 7.2, 150 μM peptide, 1 h 37°C, A540
Description: Hemoglobin release from erythrocyte suspensions of fresh human blood (5% v/v) was used to evaluate hemolytic activity of synthetic peptides. Briefly, aseptically collected blood (BD vacutainer K2E System with EDTA, Belliver Industrial State, Plymouth, UK) was centrifuged at 6,000 g for 5 min, washed with 10 mM TRIS, 150 mM NaCl, pH 7.2 and suspended in the same buffer. Fifty μl of peptide solutions at 300 μM were mixed with 50 μl aliquots of erythrocyte suspensions and incubated for 1h at 37 °C with shaking. After centrifugation, the supernatants were transferred to microplate wells with 80 μl H2O and the 540 nm absorbance was monitored with a Bioscreen plate reader. Hemolysis percentages were calculated relative to mellitin and TRIS buffer.

tobacco leaves = test: Phytotoxicity, tobacco leaf inoculation assay; format: in vivo, Nicotiana benthamiana; conditions: for Phytotoxicity at 150 μM (inoculation): lesion diameter: 100 μl of 150 μM peptide inoculated into tobacco leaf mesophyll, three days, mean and standard error, at least three inoculations
Description: Tobacco (Nicotiana benthamiana) plants were grown from seed in a heated glasshouse and used between 20 and 30 days old. One hundredμl chemically synthesized peptides at 50, 100, 150 or 250 μM were inoculated into the mesophylls of fully expanded tobacco leaves (previously wounded with a needle), using a syringe without needle, and plants were kept at standard glasshouse conditions for three days. Up to six independent inoculations were carried out in a single leaf, and at least three independent inoculations were performed per peptide and concentration, randomly distributed in different leaves and plants. Toxicity was measured as the lesion diameter.

rice Senia seeds = test: Phytotoxicity, rice germination assay; format: in vivo, Oryza sativa L.; conditions: for Phytotoxicity (germination): minimal peptide concentration causing significant alteration of shoot length: 12 Senia seeds per treatment germinated 7 days in 0, 8, 16, 32, 64 μM peptide, 28°C, one-way ANOVA; for Effect on rice seedling development at high concentrations: germination test, Senia seeds, 7 days, 125 and 250 μM also tested
Description: For each treatment, a total of 12 surface-sterilized Senia seeds were germinated in 500 μl water or peptide solution at the appropriate concentration (0, 8, 16, 32 and 64 μM) in a culture chamber (28 ± 1°C with a photoperiod of 16 h light / 8 h dark under fluorescent Sylvania Cool White lamps) for seven days. Seedling morphology was recorded and shoot length was measured.

[2] = system: erythrocyte suspensions of fresh human blood; conditions: human erythrocytes 5% v/v, TRIS/NaCl pH 7.2, 1 h 37°C, A540, relative to mellitin; confidence interval for α = 0.05; cited from earlier work
mice = conditions: cited from earlier work
[3] = system: Dickeya chrysanthemi 1552-10-1 (Dc); test: In vitro growth inhibition (MIC), Dickeya chrysanthemi; conditions: 10^8 bacterial CFU/ml suspension in TSB, microtiter plate, 25°C 48 h, OD 600 nm; three replicates, two experimental replicates
Description: (§1) Peptides were solubilized in sterile Milli-Q H2O to a concentration of 1 mM and filter sterilized through a 0.22 μm pore filter. […] Bacterial strains were stored at −80°C in Luria Bertani (LB) broth with glycerol (20%). After 24 h (Ea, Pss and Dc) or 48 h (Xav) growth in LB agar at 25°C, bacterial colonies were scraped off the surface, suspended in sterile H2O and adjusted to 10^8 CFU/ml. The fungal strain was stored at 4°C in the particulate solid carrier perlite, on fresh potato dextrose agar (PDA). Fv cultures were prepared in potato dextrose broth (PDB) and incubated for one week at 25°C in the dark in a rotary shaker at 125 rpm. They were filtered through several layers of sterile cheesecloth to eliminate macroconidia and mycelial growth. The effluent was centrifuged at 8,000 rpm for 20 min at 4°C and the pellet was suspended in sterile water. Microconidia concentration was determined in a counting chamber.
(§2) Serial dilutions of synthetic peptides were prepared at 400, 200, 100, 50, 25, 12.5 and 6 μM. […] Microplates were incubated at 25°C for 48 h (bacterial strains) or 22°C for 6 days (Fv), and optical densities at 600 nm were recorded hourly (every two hours for Fv) after 20 s shaking. […]

[4] = system: Xanthomonas axonopodis pv. vesicatoria 2133-2 (Xav); test: In vitro growth inhibition (MIC), Xanthomonas axonopodis pv. vesicatoria; conditions: 10^8 bacterial CFU/ml suspension in TSB, microtiter plate, 25°C 48 h, OD 600 nm; three replicates, two experimental replicates
Description: as §1, §2

[5] = system: Pseudomonas syringae pv. syringae EPS94 (Pss); test: In vitro growth inhibition (MIC), Pseudomonas syringae pv. syringae; conditions: 10^8 bacterial CFU/ml suspension in TSB, microtiter plate, 25°C 48 h, OD 600 nm; three replicates, two experimental replicates
Description: as §1, §2

[6] = system: Erwinia amylovora PMV6076 (Ea); test: In vitro growth inhibition (MIC), Erwinia amylovora; conditions: 10^8 bacterial CFU/ml suspension in TSB, microtiter plate, 25°C 48 h, OD 600 nm; three replicates, two experimental replicates; MIC = lowest concentration with no growth
Description: as §1, §2

Molecule	Hemolytic activity at 150 μM, ratio between each peptide and the reference peptide BP100 [1]	Phytotoxicity at 150 μM (inoculation): lesion diameter (tobacco leaves)	Phytotoxicity (germination): minimal peptide concentration causing significant alteration of shoot length (rice Senia seeds)	Hemolytic activity at 150 μM [2]	Effect on rice seedling development at high concentrations (rice Senia seeds)	Biocompatibility in acute oral toxicity tests (mice)	Antimicrobial activity Dc, minimal inhibitory concentration (MIC) [3]	Antimicrobial activity Xav, minimal inhibitory concentration (MIC) [4]	Antimicrobial activity Pss, minimal inhibitory concentration (MIC) [5]	Antimicrobial activity Ea, minimal inhibitory concentration (MIC) [6]	Lesions in tobacco leaves compared with BP100 and BP100 derivatives (tobacco leaves; inoculation of 50 to 250 μM, same doses, positive control)
CC[C@H](C)[C@H](NC(=O)[C@H](CCCCN)NC(=O)[C@H](CCCCN)NC(=O)[C@H](Cc1ccccc1)NC(=O)[C@H](CC(C)C)NC(=O)[C@H](CCCCN)NC(=O)[C@@H](N)CCCCN)C(=O)N[C@@H](CC(C)C)C(=O)N[C@@H](CCCCN)C(=O)N[C@@H](Cc1ccc(O)cc1)C(=O)N[C@@H](CC(C)C)C(=O)N[C@@H](CCCCN)C(=O)N[C@@H](CC(=O)O)C(=O)N[C@@H](CCC(=O)O)C(=O)N[C@@H](CC(C)C)C(N)=O [BP100.1]	<1	1.17 cm	64 µM	–	–	–	–	–	–	–	–
CC[C@H](C)[C@H](NC(=O)[C@H](CC(C)C)NC(=O)[C@H](CCCCN)NC(=O)[C@H](Cc1ccc(O)cc1)NC(=O)[C@H](CC(C)C)NC(=O)[C@H](C)NC(=O)[C@@H]1CCCN1C(=O)CNC(=O)[C@H](C)NC(=O)[C@H](CC(C)C)NC(=O)[C@H](Cc1ccc(O)cc1)NC(=O)[C@H](CCCCN)NC(=O)[C@H](CC(C)C)NC(=O)[C@@H](NC(=O)[C@H](CCCCN)NC(=O)[C@H](CCCCN)NC(=O)[C@H](Cc1ccccc1)NC(=O)[C@H](CC(C)C)NC(=O)[C@H](CCCCN)NC(=O)[C@@H](N)CCCCN)[C@@H](C)CC)C(=O)N[C@@H](CCCCN)C(=O)N[C@@H](CCCCN)C(=O)N[C@@H](Cc1ccccc1)C(=O)N[C@@H](CC(C)C)C(=O)N[C@@H](CCCCN)C(=O)N[C@@H](CCCCN)C(=O)N[C@@H](CCCCN)C(=O)N[C@@H](CC(=O)O)C(=O)N[C@@H](CCC(=O)O)C(=O)N[C@@H](CC(C)C)C(N)=O [BP100.2i]	4	1.32 ± 0.06^b cm	16 µM	–	–	–	–	–	–	–	–
CC[C@H](C)[C@H](NC(=O)[C@H](CCCCN)NC(=O)[C@H](CCCCN)NC(=O)[C@H](Cc1ccccc1)NC(=O)[C@H](CC(C)C)NC(=O)[C@H](CCCCN)NC(=O)[C@@H](N)CCCCN)C(=O)N[C@@H](CC(C)C)C(=O)N[C@@H](CCCCN)C(=O)N[C@@H](Cc1ccc(O)cc1)C(=O)N[C@@H](CC(C)C)C(N)=O [BP100]	–	0.90 ± 0.05^a cm	64 µM	22.0 ± 2.8%	barely effected root growth but almost completely inhibited shoot development	highly biocompatible	5 to 10 µM	5.0 to 10 µM	–	–	–
CC[C@H](C)[C@H](NC(=O)[C@H](CCCCN)NC(=O)[C@H](CCCCN)NC(=O)[C@H](Cc1ccccc1)NC(=O)[C@H](CC(C)C)NC(=O)[C@H](CCCCN)NC(=O)[C@@H](N)CCCCN)C(=O)N[C@@H](CC(C)C)C(=O)N[C@@H](CCCCN)C(=O)N[C@@H](Cc1ccc(O)cc1)C(=O)N[C@@H](CC(C)C)C(=O)O [unmodified BP100]	1	0.80 ± 0.02^a cm	64 µM	–	–	–	10 to 20 µM	10 to 20 µM	5.0 to 10 µM	5.0 to 10 µM	–
KKLFKKILKYLAGPAKKLFKKILKYLAGPAKKLFKKILKYLKDEL-NH2 (C-terminus assumed) [BP100.3]	4	1.38 ± 0.04^b cm	16 µM	–	–	–	–	–	–	–	–
KKLFKKILKYLAGPAKKLFKKILKYLKDEL-NH2 (C-terminus assumed) [BP100.2]	3	1.15 cm	32 µM	–	–	–	–	–	–	–	–
KKLFKKILKYLTTGLPALISAGPASILAPLGTTLYKLIKKFLKKKDEL-NH2 (C-terminus assumed) [BP100.2mi]	5	1.46 ± 0.12^b cm	16 µM	–	–	–	–	–	–	–	–
mellitin: highly cytotoxic, potent hemolytic natural AMP, 26 amino acids, positive control [reference compound]	–	–	–	–	predominantly inhibited root growth while allowing moderate shoot development	–	–	–	–	–	more severe lesions
